Source: PubChem BioAssay (NCI)
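Tested at 5 concentrations; 48 h exposure; 96-well plates; endpoints linearly interpolated, else capped at highest concentration. GI50: concentration for 50% inhibition of growth. TGI marks complete inhibition of growth.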

Key:
Experiment in all cases: NCI anticancer screen, dose series, 48 h
HCT-116 colon = test system: HCT-116 colon
SR leukemia = test system: SR leukemia
A498 renal = test system: A498 renal
NCI-H460 lung = test system: NCI-H460 lung
OVCAR-8 ovarian = test system: OVCAR-8 ovarian
CCRF-CEM leukemia = test system: CCRF-CEM leukemia
SF-268 CNS = test system: SF-268 CNS
CAKI-1 renal = test system: CAKI-1 renal
SNB-75 CNS = test system: SNB-75 CNS
HS 578T breast = test system: HS 578T breast
UO-31 renal = test system: UO-31 renal
SF-539 CNS = test system: SF-539 CNS
SK-MEL-5 melanoma = test system: SK-MEL-5 melanoma
OVCAR-4 ovarian = test system: OVCAR-4 ovarian
TK-10 renal = test system: TK-10 renal
BT-549 breast = test system: BT-549 breast
SW-620 colon = test system: SW-620 colon
NCI-H226 lung = test system: NCI-H226 lung
HCT-15 colon = test system: HCT-15 colon
NCI/ADR-RES ovarian = test system: NCI/ADR-RES ovarian
U251 CNS = test system: U251 CNS
SK-OV-3 ovarian = test system: SK-OV-3 ovarian
786-0 renal = test system: 786-0 renal
UACC-62 melanoma = test system: UACC-62 melanoma
HCC-2998 colon = test system: HCC-2998 colon
HL-60(TB) leukemia = test system: HL-60(TB) leukemia
UACC-257 melanoma = test system: UACC-257 melanoma
SN12C renal = test system: SN12C renal
MDA-MB-435 = test system: MDA-MB-435

## O=C(O)CCCCCCCCCCN1C(=O)/C(=C/c2cnc(-c3ccc(Cl)cc3)s2)SC1=S
HCT-116 colon
  GI50: 1.75 µM
  TGI: 7.51 µM
SR leukemia
  GI50: 0.367 µM
  TGI: 4.8 µM
A498 renal
  GI50: 15.9 µM
  TGI: 34.5 µM
NCI-H460 lung
  GI50: 1.37 µM
  TGI: > 100 µM
OVCAR-8 ovarian
  GI50: 1.65 µM
  TGI: 5.11 µM
CCRF-CEM leukemia
  GI50: 3.11 µM
  TGI: > 100 µM
SF-268 CNS
  GI50: 4.99 µM
  TGI: > 100 µM
CAKI-1 renal
  GI50: 3.31 µM
  TGI: 14.3 µM
SNB-75 CNS
  GI50: 15.4 µM
  TGI: 42.3 µM
HS 578T breast
  GI50: 11.7 µM
  TGI: > 100 µM
UO-31 renal
  GI50: 3.76 µM
  TGI: 28.2 µM
SF-539 CNS
  GI50: 3.18 µM
  TGI: 13.2 µM
SK-MEL-5 melanoma
  GI50: 1.86 µM
  TGI: 4.74 µM
OVCAR-4 ovarian
  GI50: 5.56 µM
  TGI: > 100 µM
TK-10 renal
  GI50: 5.48 µM
  TGI: 16.1 µM
BT-549 breast
  GI50: 1.95 µM
  TGI: 6.1 µM
SW-620 colon
  GI50: 2.52 µM
  TGI: 7.21 µM
NCI-H226 lung
  GI50: 6.46 µM
  TGI: 57.2 µM
HCT-15 colon
  GI50: 1.71 µM
  TGI: 3.67 µM
NCI/ADR-RES ovarian
  GI50: 1.69 µM
  TGI: 8.18 µM
U251 CNS
  GI50: 2.07 µM
  TGI: 6.06 µM
SK-OV-3 ovarian
  GI50: 3.24 µM
  TGI: 8.72 µM
786-0 renal
  GI50: 2.64 µM
  TGI: 9.67 µM
UACC-62 melanoma
  GI50: 1.57 µM
  TGI: 3.29 µM
HCC-2998 colon
  GI50: 5.03 µM
  TGI: > 100 µM
HL-60(TB) leukemia
  GI50: 3.91 µM
  TGI: > 100 µM
UACC-257 melanoma
  GI50: 5.6 µM
  TGI: > 100 µM
SN12C renal
  GI50: 1.39 µM
  TGI: 2.89 µM
MDA-MB-435
  GI50: 4.69 µM
  TGI: > 100 µM
